# In patent US20210187014A1 (The Regents of the University of Colorado, a body corporate, priority 2018, published 2021):
# Columns and labels:
# C. elegans = C. elegans larval growth assay: heat-killed E. coli plus trace live E. coli, worm volume; assay type: in vivo; settings: for worm growth with dietary supplementation: worms fed heat-killed E. coli plus live entA- or entF- mutant E. coli (Ent-deficient food)
# Text: In one embodiment of the inventive technology, the present inventors created a unique assay to facilitate the identification of microbial metabolites that benefit growth and development of host animals. […] This unique feeding condition was used to search for E. coli mutants that fail to support normal worm growth, potentially due to their inability to provide specific metabolites to benefit host animals.
# E. coli Keio collection screen. Preparation of heat-killed (HK) OP50 plates followed the procedure described previously (Qi et al., 2017). Standard overnight culture of E. coli OP50 grown in LB broth was concentrated to 1/10 vol and was then heat-killed in a 75° C. water bath for 90 min. The 150 µl of the HK-OP50 was spread onto one side of NGM plate. For preparation of bacterial mutant assay plates, E. coli Keio (Baba et al., 2006) mutants were grown overnight at 37° C. in LB medium with […] kanamycin. 0.2 uL of the bacterial culture (OD600) were seeded to the other side of HK OP50 plate. About 300 synchronized L1 worms were added to the screen plate, and cultured at 20° C., then scored for worm size at day 3 and day 4. The entire library was used for the primary screen; each bacterial mutant was screened once. For the secondary screen, 200 candidate mutants were screened (3 replicates) to confirm the slow growth phenotype.
# Chemical supplementation of culture plates. For chemical supplementation, each chemical was dissolved in water or DMSO to generate a stock. The stock solution was added to HK OP50 and then spotted onto NGM plates. […] For CaEDTA supplementation (Kiang et al., 2014), 50 ul of CaEDTA (50 ug/ul) was spread onto the center of the NGM plates seeded with OP50, then different volume of the FeCl3[175 ug/ul] […] Bacterial growth analyses. Overnight cultures were diluted to a final OD600=0.01 in 200 μL of NGM liquid medium. Bacteria were grown in 96-well plates with shaking in a Synergy2 plate reader (BioTek) at 37° C. for 17 h. The OD600 was recorded at 20 min intervals.
# Analysis of larval growth by measuring worm size. Synchronized L1 worms were seeded on the indicated NGM plate and grew to the indicated times. Photos were taken and worms volume in each photo were measured by WormSizer software (Moore et al., 2013).
# [1] = tested on: mitochondria from HEK293T cells; assay: In vitro mitochondrial iron uptake assay, mitochondria from HEK293T cells; assay type: biochemical, human
# Text: Moreover, using siRNA knockdown (FIG. 13A), the present inventors observed that this Ent-mediated increase depended on ATP5A1 (FIG. 6E, F) in a similar manner as that in the assays for C. elegans (FIG. 5A, D). The present inventors also measured the mitochondrial iron level in cells by using the fluorescent mitochondrial iron indicator, RPA, to which iron binding quenches its fluorescence. […] The relatively smaller changes seen for cultured cells, compared to the difference in worms fed heat-killed food (FIG. 2), may potentially be due to the higher base iron level under the cell culturing condition.
# Mitochondrial iron uptake assays. For the in vitro mitochondrial iron uptake assay, the present inventors modified a published procedure for analysis of mammalian cells (Devireddy et al., 2010). […] The samples were incubated for 4 hours at room temperature, and the amount of 55Fe in lysed mitochondria was determined by liquid scintillation.
# [2] = Ent stability by CAS liquid assay; assay type: physicochemical
# Text: FIG. 25. […] Degradation is indicated by increased absorbance. […] Degradation is indicated by increased relative fluorescence. […] For all tests, dilutions were kept at room temp and exposed to light. Error is standard deviation of the mean.
# liposomes = assay: Iron traffic across the lipid bilayer of synthetic liposomes +/- ATPSα; assay type: biochemical
# Procedure: ATPSα (ATP-1 or ATP5A1) was added to the liposome by an established method. […] The Calcein AM dye was added to liposomes +/− ATPSα and the fluorescence intensity of the liposome was measured; (B) Liposomes were incubated with radiolabel ed Fe^3+ (''FeCl3) and the radioactivity (relative CPM) of the liposome was measured. Method (A) measures iron inside the liposome, since calcein AM is only inside.
structure (smiles),measurement,setting,value
"O=C(N[C@H]1COC(=O)[C@@H](NC(=O)c2cccc(O)c2O)COC(=O)[C@@H](NC(=O)c2cccc(O)c2O)COC1=O)c1cccc(O)c1O [Ent, enterobactin]",rescue of worm growth by Ent supplementation,C. elegans; RNAi of atp-1 (not ctl-2),prevented the rescue of worm growth
same,worm growth,"C. elegans; ferric chloride added to live wild-type E. coli, with heat-killed E. coli",this growth defect was suppressed
same,worm growth with dietary supplementation,C. elegans,completely overcome
same,worm growth with dietary supplementation,C. elegans; listed as Enterobactin,recovers the growth defect seen with entF-
same,development of worms,C. elegans; worms fed only heat-killed bacteria,did not result in any appreciable effect
same,iron level in mitochondria,[1],prominently increased
same,stability,"[2]; 100% DMSO, room temp, light",little change during the assay period
same,stability in H2O at varying pH,[2]; H2O pH 6.5/7,more stable than the other dilutions in acidic and basic H2O
same,time of rapid degradation,"[2]; H20 (pH 5.5) with 10% DMSO, room temp, light",≤ 60 min
same,stability in deionized water,[2]; pH 5.5,highly unstable
same,level of iron inside the liposome (Calcein AM),liposomes; FeCl3 +/- Ent 1.5 uM,clearly boosted
same,level of iron associated with the liposome (radioactivity),liposomes; radiolabeled FeCl3 +/- Ent 1.5 uM,clearly boosted
